Assay results from article PMC8869720, “A Sensitive Monoclonal-Antibody-Based ELISA for Forchlorfenuron Residue Analysis in Food Samples” (Biosensors, 2022).
Values after ≈ are worked out from the molar mass of the structure shown. Where two headings read alike, the source gives them in different places.

Tests used:
[1] = system: mice antisera against CPPU; experiment: icELISA characterization of mice antisera: inhibition by CPPU; type: binding, mouse; details: 1 μg/mL of competitor
Experimental: At the first immunization, each eight-week-old Balb/c female mouse was injected subcutaneously with 200 µL of an emulsion containing an equal volume of immunogen (1.0 mg/mL) and Freund’s complete adjuvant. In the subsequent booster immunizations, Freund’s incomplete adjuvant was substituted for Freund’s complete adjuvant and was injected at two-week intervals. After the third booster injection, the antisera were collected 7 days after each injection and checked by icELISA.
(§1) The icELISA protocol was performed as described previously. Briefly, 100 µL/well of coating antigen (1 µg/mL in CBS) was added to 96-well microtiter plates and stored at 37 °C overnight. The plate was rinsed twice with washing buffer and blocked by PBST containing 5% skimmed milk powder (120 µL/well) for 3 h at 37 °C. Then, the plate was rinsed twice and dried at 37 °C for 60 min. CPPU standard in PBS (50 µL) and the antibodies diluted in PBS (50 µL) were added and incubated at 37 °C for 40 min. After rinsing five times, the goat anti-mouse IgG-HRP was added (100 µL/well), followed by incubation for 30 min at 37 °C. After rinsing five times, the TMB solution (100 µL/well) was added and incubated for another 10 min at 37 °C. Stopping reagent (50 µL/well) was injected into each well to stop the chromogenic reaction, and the absorbance at 450 nm was measured using a microplate reader.

anti-CPPU mAb = experiment: optimized indirect competitive ELISA (icELISA) with anti-CPPU monoclonal antibody; type: binding, mouse; details: for Cross-Reactivity: CR (%) = IC50 CPPU/IC50 structural analogue × 100
Experimental: as §1
Many reports have shown that the immunoassay is an equilibrium binding reaction, and the experimental parameters used can affect the performance of the ELISA [28, 31, 32, 33]. In order to improve sensitivity of the established icELISA, the assay was optimized on concentrations of coating antigen and antibody, working buffer, and IgG-HRP dilution multiple. A standard curve for CPPU was obtained under optimal conditions by four-parameter sigmoidal fitting with Origin 9.0 software (OriginLab Corporation, Northampton, MA, USA). The IC10, IC20, IC50, and IC80 values correspond to the CPPU concentration levels that inhibit 10%, 20%, 50%, and 80% of the binding between mAb and the coating antigen, respectively. The IC10 value represents the LOD of the assay. The concentration levels from IC20 to IC80 are the linear range of the assay.
To evaluate the specificity of the mAb against CPPU, CR values with six structural analogs were chosen for evaluation. The CR values were calculated using Equation (1):CR (%) = IC50 CPPU/IC50 structural analogue × 100(1)

antisera to CPPU = system: antisera to CPPU; set-up: method as in PMID 18989973, PMID 20681638, PMID 22526663; details: high-affinity antisera, Abad-Fuentes group; cited from earlier work
[2] = system: monoclonal antibody (mAb); set-up: method as in doi:10.14088/j.cnki.issn0439-8114.2016.21.037; details: immunogen CPPU-H1-BSA, coating antigen CPPU-H2-OVA; cited from earlier work
[3] = system: rabbit polyclonal antibody; set-up: method as in earlier work; details: rabbit polyclonal antibody icELISA; cited from earlier work
monoclonal antibody = system: monoclonal antibody; set-up: method as in PMID 22526663; details: previous mAb-based ELISA for CPPU; cited from earlier work
[4] = optimum conditions: coating antigen 250 ng/mL, antibody 1:8000 dilution, PBS, IgG-HRP 1:5000

Structure (SMILES)	Cross-Reactivity (anti-CPPU mAb) [%]	IC50 (anti-CPPU mAb; [4]) [µg/mL]	further results
O=C(Nc1ccccc1)Nc1ccnc(Cl)c1 [CPPU, Forchlorfenuron]	100	0.00104	Inhibition of CPPU ([1]; immunogen CPPU-COOH-BSA, coating antigen CPPU-COOH-OVA): 58.4%; Inhibition of CPPU ([1]; immunogen CPPU-COOH-KLH, coating antigen CPPU-COOH-BSA): 55.6%; Inhibition of CPPU ([1]; immunogen CPPU-COOH-KLH, coating antigen CPPU-COOH-OVA): 55.9%; Inhibition of CPPU ([1]; immunogen CPPU-COOH-THY, coating antigen CPPU-COOH-BSA): 83.3%; Inhibition of CPPU ([1]; immunogen CPPU-COOH-THY, coating antigen CPPU-COOH-OVA): 82.9%; IC50 (anti-CPPU mAb; IC50 1.04 ng/mL given in nM, read-out: IC50): 4.2 nM; limit of detection (LOD, IC10) (anti-CPPU mAb; optimum conditions, IC10 value represents the LOD): 0.00016 µg/mL; IC50 (antisera to CPPU): < 1 nM; IC50 [2]: 0.00389 µg/mL (≈ 0.0157 µM); IC50 [3]: 0.048 µg/mL (≈ 0.194 µM); LOD [3]: 1 ng/mL
Nc1c(Cl)c(Cl)nc(C(=O)O)c1Cl [Picloram]	0.23	0.45072	
O=C(Nc1ccccc1)Nc1cnns1 [Thidiazuron (TDZ), Thidiazuron]	5.36	0.01942	Cross-Reactivity (anti-CPPU mAb; listed as TDZ): less than 6%; cross-reactivity (CR) (monoclonal antibody): 71%
CN(C)C(=O)Nc1ccc(Cl)c(Cl)c1 [Diuron]	0.13	0.82379	
O=C(O)c1nc(Cl)ccc1Cl [3,6-Dichloropicolinic]	0.63	0.1662	
CON(C)C(=O)Nc1ccc(Cl)c(Cl)c1 [Linuron]	0.46	0.22643	
Cc1ccc(NC(=O)N(C)C)cc1Cl [Chlortoluron]	1.62	0.06434	
